{"source": "ChEMBL document CHEMBL3763124", "about": "“N-Benzylbenzamides: A Novel Merged Scaffold for Orally Available Dual Soluble Epoxide Hydrolase/Peroxisome Proliferator-Activated Receptor γ Modulators” (J Med Chem, 2016)", "key": {"[1]": {"target": "T1, Peroxisome proliferator-activated receptor gamma (Homo sapiens) (UniProt P37231)", "T1 sequence (whole entry)": "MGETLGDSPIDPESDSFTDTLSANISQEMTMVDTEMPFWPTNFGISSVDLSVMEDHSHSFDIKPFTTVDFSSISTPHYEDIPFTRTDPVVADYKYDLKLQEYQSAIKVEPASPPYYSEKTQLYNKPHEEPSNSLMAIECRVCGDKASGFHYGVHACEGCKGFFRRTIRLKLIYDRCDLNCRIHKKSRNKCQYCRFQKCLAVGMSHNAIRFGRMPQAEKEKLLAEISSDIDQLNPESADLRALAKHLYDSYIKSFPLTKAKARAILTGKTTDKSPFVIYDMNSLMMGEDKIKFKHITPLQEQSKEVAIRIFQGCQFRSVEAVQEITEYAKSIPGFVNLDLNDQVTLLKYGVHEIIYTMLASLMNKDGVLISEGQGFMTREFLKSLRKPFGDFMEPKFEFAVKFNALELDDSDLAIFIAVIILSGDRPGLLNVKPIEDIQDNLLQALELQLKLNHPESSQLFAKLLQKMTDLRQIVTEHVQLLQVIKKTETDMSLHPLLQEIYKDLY", "assay": "Transactivation of human PPARgamma expressed in African green monkey COS7 cells at 10 uM incubated overnight by dual-glo luciferase reporter gene assay", "format": "cell-based", "details": "COS-7"}, "[2]": {"assay": "Solubility of the compound in water by microplate reader analysis", "format": "physicochemical"}, "[3]": {"target": "T2, Peroxisome proliferator-activated receptor delta (Homo sapiens, UniProt Q03181)", "T2 sequence (Q03181 whole entry)": "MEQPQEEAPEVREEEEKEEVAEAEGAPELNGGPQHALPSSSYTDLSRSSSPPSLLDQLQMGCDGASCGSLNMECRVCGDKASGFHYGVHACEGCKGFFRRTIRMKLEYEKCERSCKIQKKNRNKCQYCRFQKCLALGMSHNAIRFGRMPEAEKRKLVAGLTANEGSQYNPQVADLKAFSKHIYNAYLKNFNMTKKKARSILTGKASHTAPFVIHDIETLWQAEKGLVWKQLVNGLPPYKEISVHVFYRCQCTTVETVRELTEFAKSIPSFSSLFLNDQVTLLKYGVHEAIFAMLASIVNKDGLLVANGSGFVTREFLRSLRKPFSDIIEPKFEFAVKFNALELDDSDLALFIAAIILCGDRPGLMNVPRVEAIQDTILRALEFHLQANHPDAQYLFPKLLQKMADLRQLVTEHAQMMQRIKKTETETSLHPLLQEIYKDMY", "assay": "Transactivation of human PPARdelta expressed in African green monkey COS7 cells incubated overnight by dual-glo luciferase reporter gene assay", "format": "cell-based", "details": "cos-7"}, "[4]": {"target": "T3, Peroxisome proliferator-activated receptor alpha (Homo sapiens) (UniProt Q07869)", "T3 sequence (whole entry)": "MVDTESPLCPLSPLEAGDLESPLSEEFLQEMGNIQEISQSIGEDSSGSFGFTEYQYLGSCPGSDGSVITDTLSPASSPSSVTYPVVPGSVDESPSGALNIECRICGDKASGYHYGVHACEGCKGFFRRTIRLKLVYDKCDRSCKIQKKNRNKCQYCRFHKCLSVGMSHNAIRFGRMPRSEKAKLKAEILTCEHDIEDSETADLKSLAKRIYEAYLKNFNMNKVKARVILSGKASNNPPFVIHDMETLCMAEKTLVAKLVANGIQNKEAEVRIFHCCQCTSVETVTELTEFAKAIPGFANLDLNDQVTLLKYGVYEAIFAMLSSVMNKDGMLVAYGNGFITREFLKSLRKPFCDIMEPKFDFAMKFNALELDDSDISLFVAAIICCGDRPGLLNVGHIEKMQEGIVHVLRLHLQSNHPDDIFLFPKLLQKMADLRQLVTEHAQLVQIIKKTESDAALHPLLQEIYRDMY", "assay": "Transactivation of human PPARalpha expressed in African green monkey COS7 cells incubated overnight by dual-glo luciferase reporter assay relative to GW7647", "format": "cell-based", "details": "COS-7"}, "[5]": {"target": "T4, Peroxisome proliferator-activated receptor delta (Homo sapiens) (UniProt Q03181)", "T4 sequence (whole entry)": "T2 sequence (Q03181 whole entry)", "assay": "Transactivation of human PPARdelta expressed in African green monkey COS7 cells at 10 uM incubated overnight by dual-glo luciferase reporter assay", "format": "cell-based", "details": "COS-7"}, "[6]": {"target": "T5, Peroxisome proliferator-activated receptor alpha (Homo sapiens, UniProt Q07869)", "T5 sequence (Q07869 whole entry)": "T3 sequence (whole entry)", "details": "cos-7", "description": "(§1) Transactivation of human PPARalpha expressed in African green monkey COS7 cells incubated overnight by dual-glo luciferase reporter gene assay"}, "[7]": {"target": "T6, Peroxisome proliferator-activated receptor gamma (Homo sapiens, UniProt P37231)", "T6 sequence (P37231 whole entry)": "T1 sequence (whole entry)", "details": "cos-7", "description": "Transactivation of human PPARgamma expressed in African green monkey COS7 cells incubated overnight by dual-glo luciferase reporter gene assay"}, "[8]": {"assay": "Apparent oral clearance in RjOrl:Swiss (CD-1) mouse plasma at 30 mg/kg", "format": "ADME, organism-based"}, "[9]": {"system": "HepG2", "assay": "Cytotoxicity against human HepG2 cells assessed as cell viability up to 30 uM after 48 hrs by WST-1 assay", "format": "cell-based", "details": "hepg2, 48 h"}, "[10]": {"target": "T7, Peroxisome proliferator-activated receptor gamma (Mus musculus) (UniProt P37238)", "T7 sequence (whole entry)": "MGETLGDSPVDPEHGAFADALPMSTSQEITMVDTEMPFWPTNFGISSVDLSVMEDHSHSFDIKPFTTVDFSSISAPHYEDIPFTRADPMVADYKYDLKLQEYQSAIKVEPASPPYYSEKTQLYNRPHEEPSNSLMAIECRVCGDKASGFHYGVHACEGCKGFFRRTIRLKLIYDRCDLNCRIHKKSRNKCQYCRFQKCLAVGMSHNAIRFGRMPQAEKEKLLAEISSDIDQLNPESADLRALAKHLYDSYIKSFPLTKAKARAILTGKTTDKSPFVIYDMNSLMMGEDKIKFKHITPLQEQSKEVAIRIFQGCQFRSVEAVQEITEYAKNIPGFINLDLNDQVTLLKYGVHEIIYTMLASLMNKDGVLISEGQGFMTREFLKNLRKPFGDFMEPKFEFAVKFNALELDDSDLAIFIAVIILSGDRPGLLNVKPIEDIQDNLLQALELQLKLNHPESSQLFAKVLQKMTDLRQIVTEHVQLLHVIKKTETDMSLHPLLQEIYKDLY", "assay": "Transactivation of PPARgamma in mouse 3T3L1 cells assessed as adipocyte differentiation by Oil Red O staining-based assay", "format": "cell-based", "details": "3T3-L1"}, "[11]": {"target": "T1, Peroxisome proliferator-activated receptor gamma (Homo sapiens)", "assay": "Transactivation of PPARgamma in human primary preadipocytes assessed as adipocyte differentiation by Oil Red O staining-based assay", "format": "cell-based"}, "[12]": {"target": "T7, Peroxisome proliferator-activated receptor gamma (Mus musculus)", "assay": "Transactivation of PPARgamma in mouse 3T3L1 cells assessed as increase in […] expression by qPCR method", "format": "cell-based", "details": "3T3-L1"}, "[13]": {"target": "T7, Peroxisome proliferator-activated receptor gamma (Mus musculus)", "assay": "Transactivation of PPARgamma in mouse 3T3L1 cells assessed as increase in adiponectin expression by qPCR method", "format": "cell-based", "details": "3T3-L1"}, "[14]": {"target": "T7, Peroxisome proliferator-activated receptor gamma (Mus musculus)", "assay": "Transactivation of PPARgamma in mouse 3T3L1 cells assessed as increase in FABP4 expression by qPCR method", "format": "cell-based", "details": "3T3-L1"}, "[15]": {"target": "T7, Peroxisome proliferator-activated receptor gamma (Mus musculus)", "assay": "Transactivation of PPARgamma in mouse 3T3L1 cells assessed as increase in LPL expression by qPCR method", "format": "cell-based", "details": "3T3-L1"}, "[16]": {"target": "T1, Peroxisome proliferator-activated receptor gamma (Homo sapiens)", "assay": "Transactivation of PPARgamma in human primary preadipocytes assessed as increase in […] expression at 10 uM by qPCR method", "format": "cell-based"}, "[17]": {"target": "T1, Peroxisome proliferator-activated receptor gamma (Homo sapiens)", "assay": "Transactivation of PPARgamma in human primary preadipocytes assessed as increase in adiponectin expression at 10 uM by qPCR method", "format": "cell-based"}, "[18]": {"target": "T1, Peroxisome proliferator-activated receptor gamma (Homo sapiens)", "assay": "Transactivation of PPARgamma in human primary preadipocytes assessed as increase in FABP4 expression at 10 uM by qPCR method", "format": "cell-based"}, "[19]": {"target": "T1, Peroxisome proliferator-activated receptor gamma (Homo sapiens)", "assay": "Transactivation of PPARgamma in human primary preadipocytes assessed as increase in LPL expression at 10 uM by qPCR method", "format": "cell-based"}, "[20]": {"system": "Mus musculus", "assay": "Drug level in RjOrl:Swiss (CD-1) mouse plasma treated with Ethyl 2-Ethyl 3-[4-(N-((2-trifluoromethyl)benzyl)benzamide)]propanoate at 30 mg/kg, po administered as single dose", "format": "ADME, organism-based", "details": "in vivo"}, "[21]": {"target": "T8, Bifunctional epoxide hydrolase 2 (Homo sapiens, UniProt P34913)", "T8 sequence (P34913 whole entry)": "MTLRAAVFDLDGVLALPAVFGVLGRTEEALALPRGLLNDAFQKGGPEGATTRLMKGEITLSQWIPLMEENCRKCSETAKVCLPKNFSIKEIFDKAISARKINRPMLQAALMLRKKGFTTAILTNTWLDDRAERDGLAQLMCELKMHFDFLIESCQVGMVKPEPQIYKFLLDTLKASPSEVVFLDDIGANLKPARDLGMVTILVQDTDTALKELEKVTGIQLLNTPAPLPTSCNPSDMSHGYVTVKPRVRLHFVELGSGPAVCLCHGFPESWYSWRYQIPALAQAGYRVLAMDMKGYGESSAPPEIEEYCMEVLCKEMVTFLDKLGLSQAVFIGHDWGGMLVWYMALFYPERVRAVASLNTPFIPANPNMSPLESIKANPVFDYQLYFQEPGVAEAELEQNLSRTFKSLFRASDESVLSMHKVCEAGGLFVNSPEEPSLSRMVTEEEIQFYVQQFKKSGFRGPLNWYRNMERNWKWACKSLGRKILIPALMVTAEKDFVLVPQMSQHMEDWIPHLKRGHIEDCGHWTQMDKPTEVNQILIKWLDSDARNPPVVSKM", "assay": "Inhibition of human recombinant sEH using PHOME as substrate preincubated for 30 mins followed by substrate addition measured for 30 mins by fluorescence-based assay"}, "[22]": {"target": "T5, Peroxisome proliferator-activated receptor alpha", "description": "as §1"}}, "note": "Calls of active or inactive are those of the source. No cut-off for these calls is given here.", "data": [{"smiles": "O=C(O)c1ccc(-c2ccc(C(=O)NCc3ccccc3C(F)(F)F)cc2)cc1", "values": [{"measurement": "Activity", "setting": "[1]", "value": 30, "unit": "%"}, {"measurement": "solubility", "setting": "[2]", "value": 3.75, "unit": "µM"}, {"measurement": "EC50", "setting": "[3]", "value": "Not Active"}, {"measurement": "Emax", "setting": "[4]", "value": "inactive"}, {"measurement": "Emax", "setting": "[5]", "value": "inactive"}, {"measurement": "EC50", "setting": "[6]", "value": "Not Active"}]}, {"smiles": "O=C(NCc1ccccc1C(F)(F)F)c1ccc(-c2nnn[nH]2)cc1", "values": [{"measurement": "solubility", "setting": "[2]", "value": 375, "unit": "µM"}, {"measurement": "EC50", "setting": "[3]", "value": "Not Active"}, {"measurement": "Emax", "setting": "[4]", "value": "inactive"}, {"measurement": "Emax", "setting": "[5]", "value": "inactive"}, {"measurement": "EC50", "setting": "[6]", "value": "Not Active"}, {"measurement": "EC50", "setting": "[7]", "value": "Not Active"}]}, {"smiles": "CON(C)C(=O)/C=C/c1ccc(C(=O)NCc2ccccc2C(F)(F)F)cc1", "values": [{"measurement": "EC50", "setting": "[3]", "value": "Not Active"}, {"measurement": "Emax", "setting": "[4]", "value": "inactive"}, {"measurement": "Emax", "setting": "[5]", "value": "inactive"}, {"measurement": "EC50", "setting": "[6]", "value": "Not Active"}, {"measurement": "EC50", "setting": "[7]", "value": "Not Active"}]}, {"smiles": "CCC(Cc1ccc(C(=O)NCc2ccccc2C(F)(F)F)cc1)C(=O)O", "note": "(stereo not drawn)", "values": [{"measurement": "CL/F", "setting": "[8]", "value": 31.7, "unit": "mL/min/kg"}, {"measurement": "Activity", "setting": "[9]", "value": "Non-toxic"}, {"measurement": "solubility", "setting": "[2]", "value": 75, "unit": "µM"}, {"measurement": "EC50", "setting": "[3]", "value": "Not Active"}, {"measurement": "Emax", "setting": "[4]", "value": "inactive"}, {"measurement": "Emax", "setting": "[5]", "value": "inactive"}, {"measurement": "Activity", "setting": "[10]", "value": "Dose-dependent effect"}, {"measurement": "Activity", "setting": "[11]", "value": "Dose-dependent effect"}, {"measurement": "Activity", "setting": "[12]", "value": "Dose-dependent effect"}, {"measurement": "Activity", "setting": "[13]", "value": "Dose-dependent effect"}, {"measurement": "Activity", "setting": "[14]", "value": "Dose-dependent effect"}, {"measurement": "Activity", "setting": "[15]", "value": "Dose-dependent effect"}, {"measurement": "Activity", "setting": "[16]", "value": "Active"}, {"measurement": "Activity", "setting": "[17]", "value": "Active"}, {"measurement": "Activity", "setting": "[18]", "value": "Active"}, {"measurement": "Activity", "setting": "[19]", "value": "Active"}, {"measurement": "Drug metabolism", "setting": "[20]", "value": "metabolite_detected"}, {"measurement": "EC50", "setting": "[6]", "value": "Not Active"}]}, {"smiles": "CCC(Cc1ccc(C(=O)NCc2ccc(Oc3ccccc3)cc2)cc1)C(=O)O", "note": "(stereo not drawn)", "values": [{"measurement": "IC50", "setting": "[21]", "value": 12, "unit": "µM"}, {"measurement": "Emax", "setting": "[5]", "value": 20, "unit": "%"}, {"measurement": "EC50", "setting": "[22]", "value": 0.9, "unit": "µM"}]}]}
